Test results as given in patent US10479803B2, “Bicyclic heteroarylaminoalkyl phenyl derivatives as PI3K inhibitors” (Incyte Corporation, priority 2014, dated 2019).

Tests used:
human JAK2 = human JAK2 (Homo sapiens (Human), UniProt O60674); assay: In vitro JAK kinase assay (Example J), JAK2; assay type: biochemical; conditions: ratio of IC50s, Assay J at 1 mM ATP
human JAK1 = human JAK1 (Homo sapiens, UniProt P23458); assay: In vitro JAK kinase assay (Example J), JAK1; assay type: biochemical; conditions: Assay J at 1 mM ATP

Sequence of human JAK2 (O60674 828-1132): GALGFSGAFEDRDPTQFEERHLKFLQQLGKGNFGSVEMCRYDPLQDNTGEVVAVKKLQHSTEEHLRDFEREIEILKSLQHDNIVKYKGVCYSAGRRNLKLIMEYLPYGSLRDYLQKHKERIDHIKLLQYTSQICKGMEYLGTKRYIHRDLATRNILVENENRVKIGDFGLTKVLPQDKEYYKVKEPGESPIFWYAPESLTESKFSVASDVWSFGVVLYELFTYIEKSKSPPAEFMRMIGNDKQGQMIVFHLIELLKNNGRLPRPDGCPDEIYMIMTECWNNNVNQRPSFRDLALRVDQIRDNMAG

SMILES	JAK2/JAK1 (human JAK2)	IC50 (human JAK1) [nM]
C[C@@H](O)c1nc2cnc3ccsc3c2n1[C@H]1CC[C@H](CC#N)OC1 [#1, ((2R,5S)-5-{2-[(1R)-1-Hydroxyethyl]-1H-imidazo[4,5-d]thieno[3,2-b]pyridin-1-yl}tetrahydro-2H-pyran-2-yl)acetonitrile]	>10	
N#CCC(CN1CCN(C(=O)c2ccc(C#N)cc2F)CC1)n1ccc(-c2ncnc3[nH]ccc23)c1 (stereo not drawn) [Example 6, 4-[(4-{3-cyano-2-[3-(7H-pyrrolo[2,3-d]pyrimidin-4-yl)-1H-pyrrol-1-yl]propyl}piperazin-1-yl)carbonyl]-3-fluorobenzonitrile]	>10	< 10
